{"source": "patent US20140369943A1", "about": "“COMPOSITIONS COMPRISING ISOSORBIDE MONOESTERS AND HALOGENATED ANTIMICROBIAL ACTIVE COMPOUNDS” (CLARIANT INTERNATIONAL LTD., priority 2011, published 2014)", "key": {"[1]": {"tested_on": "bacteria, fungi and yeasts", "experiment": "antimicrobial activity, overall statements in words", "assay_type": "cell-based", "method": "(§1) Below, the antimicrobial efficacy of a composition according to the invention consisting of 20% by weight of isorbide caprylate 1 and 80% by weight of a 10% by weight strength solution of 2-bromo-2-nitropropane-1,3-diol (bronopol) in water against bacteria, fungi and yeasts is examined (hereinbelow, the composition is referred to as “composition A”). For the tests with bacteria, composition A was diluted with butyl polyglycol and then, at 50° C., added to liquid CASO agar (casein-peptone agar) buffered to pH 7 (+1-0.2) in various concentrations (hereinbelow referred to as compositions B1, B2, etc.). For the tests with fungi and yeasts, composition A was diluted with butyl polyglycol and then added to liquid Sabouraud 4% dextrose agar buffered to pH 5.6 (+1-0.2) in various concentrations (hereinbelow referred to as compositions PH1, PH2, etc.). The compositions B1, B2, etc. and PH1, PH2 etc. were each poured into Petri dishes and each inoculated with identical amounts of bacteria, fungi and yeasts. The minimum inhibitory concentration (MIC) is the concentration at which inhibition of the growth of the bacteria, fungi and yeasts in the compositions B1, B2, etc. and PH1, PH2, etc. occurs."}, "[2]": {"tested_on": "bacteria, fungi and yeasts", "conditions": "general statement, no data given, cited from earlier work"}, "Candida albicans": {"tested_on": "Candida albicans", "experiment": "MIC determination in agar (antimicrobial efficacy)", "assay_type": "cell-based", "conditions": "MIC of bronopol alone, Sabouraud 4% dextrose agar pH 5.6, corrected for dilution", "method": "as §1\n(§2) The minimum inhibitory concentrations for the pure substances isosorbide caprylate 1 and bronopol were determined analogously.\n(§3) The values determined for the minimum inhibitory concentrations “MIC mixture”, stated in Table 1 below, are based on the concentrations of composition A.\n(§4) The values determined for the minimum inhibitory concentrations “QA” and “QB”, stated in Table 1 below, have already been corrected for the dilution effect of the water and the butyl polyglycol.\n(§5) Kull et al., Applied Microbiology 1961, 9, 538 using the formula below: […]\n(§6) where • Qa is the minimum inhibitory concentration of isosorbide caprylate 1 in the mixture employed, • QA is the minimum inhibitory concentration of isosorbide caprylate 1, • Qb is the minimum inhibitory concentration of bronopol in the mixture employed and • QB is the minimum inhibitory concentration of bronopol.\n(§7) The values for Qa and Qb are determined from the values for the mixtures (“MIC mixture”) by multiplying the minimum inhibitory concentrations determined for Qa with the factor 0.2 and for Qb with the factor 0.08, because of the proportions of the ingredients—20% by weight of isosorbide caprylate 1 and 8% by weight of bronopol—in composition A according to the invention examined.\n(§8) If an SE value >1 is obtained, an antagonistic effect is present."}, "Fusarium solani": {"tested_on": "Fusarium solani", "experiment": "MIC determination in agar (antimicrobial efficacy)", "assay_type": "cell-based", "conditions": "MIC of bronopol alone, Sabouraud 4% dextrose agar pH 5.6, corrected for dilution", "method": "as §1, §2, §3, §4, §5, §6, §7, §8"}, "Proteus vulgaris": {"tested_on": "Proteus vulgaris", "experiment": "MIC determination in agar (antimicrobial efficacy)", "assay_type": "cell-based", "conditions": "MIC of bronopol alone, CASO agar pH 7, corrected for dilution", "method": "as §1, §2, §3, §4, §5, §6, §7, §8"}, "Enterobacter aerogenes": {"tested_on": "Enterobacter aerogenes", "experiment": "MIC determination in agar (antimicrobial efficacy)", "assay_type": "cell-based", "conditions": "MIC of bronopol alone, CASO agar pH 7, corrected for dilution", "method": "as §1, §2, §3, §4, §5, §6, §7, §8"}, "Penicillium minioluteum": {"tested_on": "Penicillium minioluteum", "experiment": "MIC determination in agar (antimicrobial efficacy)", "assay_type": "cell-based", "conditions": "MIC of bronopol alone, Sabouraud 4% dextrose agar pH 5.6, corrected for dilution", "method": "as §1, §2, §3, §4, §5, §6, §7, §8"}, "Aspergillus brasiliensis": {"tested_on": "Aspergillus brasiliensis", "experiment": "MIC determination in agar (antimicrobial efficacy)", "assay_type": "cell-based", "conditions": "MIC of bronopol alone, Sabouraud 4% dextrose agar pH 5.6, corrected for dilution", "method": "as §1, §2, §3, §4, §5, §6, §7, §8"}, "Escherichia coli": {"tested_on": "Escherichia coli", "experiment": "MIC determination in agar (antimicrobial efficacy)", "assay_type": "cell-based", "conditions": "MIC of bronopol alone, CASO agar pH 7, corrected for dilution", "method": "as §1, §2, §3, §4, §5, §6, §7, §8"}, "Pseudomonas aeruginosa": {"tested_on": "Pseudomonas aeruginosa", "experiment": "MIC determination in agar (antimicrobial efficacy)", "assay_type": "cell-based", "conditions": "MIC of bronopol alone, CASO agar pH 7, corrected for dilution", "method": "as §1, §2, §3, §4, §5, §6, §7, §8"}, "Klebsiella pneumoniae": {"tested_on": "Klebsiella pneumoniae", "experiment": "MIC determination in agar (antimicrobial efficacy)", "assay_type": "cell-based", "conditions": "MIC of bronopol alone, CASO agar pH 7, corrected for dilution", "method": "as §1, §2, §3, §4, §5, §6, §7, §8"}, "Aspergillus terreus": {"tested_on": "Aspergillus terreus", "experiment": "MIC determination in agar (antimicrobial efficacy)", "assay_type": "cell-based", "conditions": "MIC of bronopol alone, Sabouraud 4% dextrose agar pH 5.6, corrected for dilution", "method": "as §1, §2, §3, §4, §5, §6, §7, §8"}, "Citrobacter freundii": {"tested_on": "Citrobacter freundii", "experiment": "MIC determination in agar (antimicrobial efficacy)", "assay_type": "cell-based", "conditions": "MIC of bronopol alone, CASO agar pH 7, corrected for dilution", "method": "as §1, §2, §3, §4, §5, §6, §7, §8"}, "Penicillium funicolosium": {"tested_on": "Penicillium funicolosium", "experiment": "MIC determination in agar (antimicrobial efficacy)", "assay_type": "cell-based", "conditions": "MIC of bronopol alone, Sabouraud 4% dextrose agar pH 5.6, corrected for dilution", "method": "as §1, §2, §3, §4, §5, §6, §7, §8"}, "Pseudomonas oleovorans": {"tested_on": "Pseudomonas oleovorans", "experiment": "MIC determination in agar (antimicrobial efficacy)", "assay_type": "cell-based", "conditions": "MIC of bronopol alone, CASO agar pH 7, corrected for dilution", "method": "(§9) Below, the antimicrobial efficacy of a composition according to the invention consisting of 20% by weight of isorbide caprylate 1 and 80% by weight of a 10% by weight strength solution of 2-bromo-2-nitropropane-1,3-diol (bronopol) in water against bacteria, fungi and yeasts is examined (hereinbelow, the composition is referred to as “composition A”). For the tests with bacteria, composition A was diluted with butyl polyglycol and then, at 50° C., added to liquid CASO agar (casein-peptone agar) buffered to pH 7 (+1-0.2) in various concentrations (hereinbelow referred to as compositions B1, B2, etc.). For the tests with fungi and yeasts, composition A was diluted with butyl polyglycol and then added to liquid Sabouraud 4% dextrose agar buffered to pH 5.6 (+1-0.2) in various concentrations (hereinbelow referred to as compositions PH1, PH2, etc.). […]\nas §2, §3\n(§10) The values determined for the minimum inhibitory concentrations “QA” and “QB”, stated in Table 1 below, have already been corrected for the dilution effect of the water and the butyl polyglycol. […]"}, "Staphylococcus aureus": {"tested_on": "Staphylococcus aureus", "experiment": "MIC determination in agar (antimicrobial efficacy)", "assay_type": "cell-based", "conditions": "MIC of bronopol alone, CASO agar pH 7, corrected for dilution", "method": "as §9, §2, §3, §10"}}, "note": "“Also recorded” adds a separate entry of the source. Where two headings read alike, the source gives them in different places.", "data": [{"compound": "isosorbide monocaprylate", "values": [{"measurement": "antimicrobial activity", "setting": "[1]; concluded from activity of isosorbide caprylate 1 and inactivity of its other constituents", "value": "significant antimicrobial activity"}]}, {"compound": "CCCCCCCC(=O)O", "note": "[caprylic acid]", "values": [{"measurement": "antimicrobial activity", "setting": "[2]; at a pH of 6 or above", "value": "no antimicrobial activity"}, {"measurement": "antimicrobial efficacy", "setting": "[2]", "value": "antimicrobially effective"}, {"measurement": "antimicrobial efficacy as constituent of isosorbide caprylate 1", "setting": "[1]; present in an amount of only 0.4% by weight", "value": "so low that it is negligible; also recorded: lack of antimicrobial activity"}]}, {"compound": "O=[N+]([O-])C(Br)(CO)CO", "note": "[bronopol, 2-bromo-2-nitropropane-1,3-diol]", "values": [{"measurement": "QB, meas.", "setting": "Candida albicans", "value": 500, "unit": "ppm"}, {"measurement": "QB, meas.", "setting": "Fusarium solani", "value": 500, "unit": "ppm"}, {"measurement": "QB, meas.", "setting": "Proteus vulgaris", "value": 50, "unit": "ppm"}, {"measurement": "QB, meas.", "setting": "Enterobacter aerogenes", "value": 75, "unit": "ppm"}, {"measurement": "QB, meas.", "setting": "Penicillium minioluteum", "value": 500, "unit": "ppm"}, {"measurement": "QB, meas.", "setting": "Aspergillus brasiliensis", "value": 500, "unit": "ppm"}, {"measurement": "QB, meas.", "setting": "Escherichia coli", "value": 50, "unit": "ppm"}, {"measurement": "QB, meas.", "setting": "Pseudomonas aeruginosa", "value": 75, "unit": "ppm"}, {"measurement": "QB, meas.", "setting": "Klebsiella pneumoniae", "value": 50, "unit": "ppm"}, {"measurement": "QB, meas.", "setting": "Aspergillus terreus", "value": 1000, "unit": "ppm"}, {"measurement": "QB, meas.", "setting": "Citrobacter freundii", "value": 50, "unit": "ppm"}, {"measurement": "QB, meas.", "setting": "Penicillium funicolosium", "value": 150, "unit": "ppm"}, {"measurement": "QB, meas.", "setting": "Pseudomonas oleovorans", "value": 50, "unit": "ppm"}, {"measurement": "QB, meas.", "setting": "Staphylococcus aureus", "value": 75, "unit": "ppm"}]}, {"compound": "O[C@@H]1CO[C@H]2[C@@H]1OC[C@@H]2O", "note": "[isosorbide]", "values": [{"measurement": "antimicrobial activity", "setting": "[1]; overall conclusion in words from Tables 1 and 2", "value": "neither isosorbide nor isosorbide dicaprylate are antimicrobially active; also recorded: lack of antimicrobial activity"}]}]}
